From patent publication US20220054387A1, “COMPOSITION COMPRISING AT LEAST ONE GLYCOSYLATED FLAVONOID AND ITS USE IN COSMETICS OR DERMATOLOGY” (PURALLY, priority 2020, published 2022)

Legend:
IL-31 = IL-31 release by keratinocytes exposed to benzo[a]pyrene and blue light (ELISA); format: cell-based, human
Protocol: The cells used in this study are primary cultures of normal human keratinocytes (NHKs) extracted after skin surgery of a donor.
They were cultured in a complete KSFM environment: Keratinocyte-SFM (17005-31, Gibco) with L-Glutamine, supplemented with a recombinant human epidermal growth factor (EGFhr, 10450-013, Gibco), extract of bovine pituitary gland (BPE, 13028-014, Gibco) and 1% of streptomycin penicillin (15070-063, Gibco) at 37° C. in 5% CO2 atmosphere up until 80% confluence.
The keratinocytes cultured according to Example 1 are exposed either to benzo[a]pyrene (B[a]P) at 20 μμM, or to blue light (450 nm) at 40 J/cm^2 or to the combination of both at the same doses. A myricitrin treatment with amounts ranging from 10 μμM to 50 μμM is applied to cells that have previously received the B[a]P and blue light combination.
After 24 hours' treatment, an assay of the interleukin 31 (IL-31) released by the cells is performed, via an immunoassay kit (ELISA.) The IL-31 assay was performed with the human IL-31 ELISA MAX™ Deluxe Set (445704, Biolegend.)

[1] = test system: normal human keratinocytes; assay: Keratinocyte viability assay (XTT); format: cell-based; conditions: myricitrin 0.21 to 50 μμM, 24 hours
Protocol: The cells used in this study are primary cultures of normal human keratinocytes (NHKs) extracted after skin surgery of a donor. They were cultured in a complete KSFM environment: Keratinocyte-SFM (17005-31, Gibco) with L-Glutamine, supplemented with a recombinant human epidermal growth factor (EGFhr, 10450-013, Gibco), extract of bovine pituitary gland (BPE, 13028-014, Gibco) and 1% of streptomycin penicillin (15070-063, Gibco) at 37° C. in 5% CO2 atmosphere up until 80% confluence. On D0, normal human keratinocytes are incubated in 96-well plates in a culture medium. The cells are left to stabilize for 24 hours at 37° C. in 5% CO2 atmosphere, as described in Example 1. […] The NHK viability was assessed using a Cell Proliferation Kit II (XTT) (11465015001, Roche) in accordance with the manufacturer's instructions. The XTT system, a colorimetric method, is a test used to quantify mitochondrial activity. […] The formazan derivate is measured by spectrophotometry (at 450 nm with 650 nm of reference.) For each condition, optical density data averages (OD, absorbance) are calculated. The viability of the treated cells is expressed as a percentage of untreated control batch: a treatment that reduces the viability of the cells to below the comparative limit of 80% of mitochondrial activity in the untreated control batch, is considered cytotoxic for the cells. […]

Row | Compound | increase in IL-31 by the keratinocytes (IL-31; benzo[a]pyrene 20 μμM combined with blue light (450 nm) 40 J/cm^2) | decrease in the production of IL-31 (IL-31; myricitrin as of 20 μM, cells pre-treated with 20 μM of B[a]P and 40 J/cm^2 of blue light, 24 hours' treatment) [%] | toxic effect on keratinocytes (cell viability, XTT) [1]
1 | c1ccc2c(c1)cc1ccc3cccc4ccc2c1c34 [benzo[a]pyrene, reference compound] | +111% |  | 
2 | C[C@@H]1O[C@@H](Oc2c(-c3cc(O)c(O)c(O)c3)oc3cc(O)cc(O)c3c2=O)[C@H](O)[C@H](O)[C@H]1O [myricitrin, 5,7-dihydroxy-3-[(2S,3R,4R,5R,6S)-3,4,5-trihydroxy-6-methyloxan-2-yl]oxy-2-(3,4,5-trihydroxyphenyl)chromen-4-one] |  | −100 | no toxic effect
